Several values for one entry are separate records, joined by “and”; a condition that tells them apart may be missing. Equal values may be shown once.
Key:
[1] = target: T1, AKT1 (Homo sapiens, UniProt P31749); assay: biochemical
T1 construct: purchased Reaction Biology Corporation

[2] = target: T2, CAMK1g (Homo sapiens, UniProt Q96NX5); assay: HotSpot kinase assay; format: biochemical; conditions: read-out: % Enzyme Activity (relative to DMSO controls)
T2 construct: purchased Reaction Biology Corporation

[3] = target: T3, CDK4/cyclin D1 (Homo sapiens, UniProt P11802); assay: HotSpot kinase assay; format: biochemical; conditions: read-out: % Enzyme Activity (relative to DMSO controls)
T3 construct: purchased Reaction Biology Corporation

[4] = target: T4, CK1a1 (Homo sapiens, UniProt P48729); assay: HotSpot kinase assay; format: biochemical; conditions: read-out: % Enzyme Activity (relative to DMSO controls)
T4 construct: purchased Reaction Biology Corporation

[5] = target: T5, DAPK1 (Homo sapiens, UniProt P53355); assay: HotSpot kinase assay; format: biochemical; conditions: read-out: % Enzyme Activity (relative to DMSO controls)
T5 construct: purchased Reaction Biology Corporation

[6] = target: T6, DYRK1/DYRK1A (Homo sapiens, UniProt Q13627); assay: HotSpot kinase assay; format: biochemical; conditions: read-out: % Enzyme Activity (relative to DMSO controls)
T6 construct: purchased Reaction Biology Corporation

[7] = target: T7, EPHA1 (Homo sapiens, UniProt P21709); assay: HotSpot kinase assay; format: biochemical; conditions: read-out: % Enzyme Activity (relative to DMSO controls)
T7 construct: purchased Reaction Biology Corporation

[8] = target: T8, EPHA3 (Homo sapiens, UniProt P29320); assay: HotSpot kinase assay; format: biochemical; conditions: read-out: % Enzyme Activity (relative to DMSO controls)
T8 construct: purchased Reaction Biology Corporation

[9] = target: T9, EPHA8 (Homo sapiens, UniProt P29322); assay: HotSpot kinase assay; format: biochemical; conditions: read-out: % Enzyme Activity (relative to DMSO controls)
T9 construct: purchased Reaction Biology Corporation

[10] = target: T10, FES/FPS (Homo sapiens, UniProt P07332); assay: HotSpot kinase assay; format: biochemical; conditions: read-out: % Enzyme Activity (relative to DMSO controls)
T10 construct: purchased Reaction Biology Corporation

[11] = target: T11, FGFR4 (Homo sapiens, UniProt P22455); assay: HotSpot kinase assay; format: biochemical; conditions: read-out: % Enzyme Activity (relative to DMSO controls)
T11 construct: purchased Reaction Biology Corporation

[12] = target: T12, HCK (Homo sapiens, UniProt P08631); assay: HotSpot kinase assay; format: biochemical; conditions: read-out: % Enzyme Activity (relative to DMSO controls)
T12 construct: purchased Reaction Biology Corporation

[13] = target: T13, IKKe/IKBKE (Homo sapiens, UniProt Q14164); assay: HotSpot kinase assay; format: biochemical; conditions: read-out: % Enzyme Activity (relative to DMSO controls)
T13 construct: purchased Reaction Biology Corporation

[14] = target: T14, JAK3 (Homo sapiens, UniProt P52333); assay: HotSpot kinase assay; format: biochemical; conditions: read-out: % Enzyme Activity (relative to DMSO controls)
T14 construct: purchased Reaction Biology Corporation

[15] = target: T15, MAPKAPK2 (Homo sapiens, UniProt P49137); assay: HotSpot kinase assay; format: biochemical; conditions: read-out: % Enzyme Activity (relative to DMSO controls)
T15 construct: purchased Reaction Biology Corporation

[16] = target: T16, MAST3 (Homo sapiens, UniProt O60307); assay: HotSpot kinase assay; format: biochemical; conditions: read-out: % Enzyme Activity (relative to DMSO controls)
T16 construct: purchased Reaction Biology Corporation

[17] = target: T17, MLCK2/MYLK2 (Homo sapiens, UniProt Q9H1R3); assay: HotSpot kinase assay; format: biochemical; conditions: read-out: % Enzyme Activity (relative to DMSO controls)
T17 construct: purchased Reaction Biology Corporation

[18] = target: T18, MRCKa/CDC42BPA (Homo sapiens, UniProt Q5VT25); assay: HotSpot kinase assay; format: biochemical; conditions: read-out: % Enzyme Activity (relative to DMSO controls)
T18 construct: purchased Reaction Biology Corporation

[19] = target: T19, MSSK1/STK23 (Homo sapiens, UniProt Q9UPE1); assay: HotSpot kinase assay; format: biochemical; conditions: read-out: % Enzyme Activity (relative to DMSO controls)
T19 construct: purchased Reaction Biology Corporation

[20] = target: T20, MST1/STK4 (Homo sapiens, UniProt Q13043); assay: HotSpot kinase assay; format: biochemical; conditions: read-out: % Enzyme Activity (relative to DMSO controls)
T20 construct: purchased Reaction Biology Corporation

[21] = target: T21, MST2/STK3 (Homo sapiens, UniProt Q13188); assay: HotSpot kinase assay; format: biochemical; conditions: read-out: % Enzyme Activity (relative to DMSO controls)
T21 construct: purchased Reaction Biology Corporation

[22] = target: T22, PKG1b (Homo sapiens, UniProt Q13976); assay: HotSpot kinase assay; format: biochemical; conditions: read-out: % Enzyme Activity (relative to DMSO controls)
T22 construct: purchased Reaction Biology Corporation

[23] = target: T23, PKN3/PRK3 (Homo sapiens, UniProt Q6P5Z2); assay: HotSpot kinase assay; format: biochemical; conditions: read-out: % Enzyme Activity (relative to DMSO controls)
T23 construct: purchased Reaction Biology Corporation

[24] = target: T24, RET (Homo sapiens, UniProt P07949); assay: HotSpot kinase assay; format: biochemical; conditions: read-out: % Enzyme Activity (relative to DMSO controls)
T24 construct: purchased Reaction Biology Corporation

[25] = target: T25, SBK1 (Homo sapiens, UniProt Q52WX2); assay: HotSpot kinase assay; format: biochemical; conditions: read-out: % Enzyme Activity (relative to DMSO controls)
T25 construct: purchased Reaction Biology Corporation

[26] = target: T26, SGK2 (Homo sapiens, UniProt Q9HBY8); assay: HotSpot kinase assay; format: biochemical; conditions: read-out: % Enzyme Activity (relative to DMSO controls)
T26 construct: purchased Reaction Biology Corporation

[27] = target: T27, STK16 (Homo sapiens, UniProt O75716); assay: HotSpot kinase assay; format: biochemical; conditions: read-out: % Enzyme Activity (relative to DMSO controls)
T27 construct: purchased Reaction Biology Corporation

[28] = target: T28, STK38/NDR1 (Homo sapiens, UniProt Q15208); assay: HotSpot kinase assay; format: biochemical; conditions: read-out: % Enzyme Activity (relative to DMSO controls)
T28 construct: purchased Reaction Biology Corporation

[29] = target: T29, TAK1 (Homo sapiens, UniProt O43318); assay: HotSpot kinase assay; format: biochemical; conditions: read-out: % Enzyme Activity (relative to DMSO controls)
T29 construct: purchased Reaction Biology Corporation

[30] = target: T30, TRKC (Homo sapiens, UniProt Q16288); assay: HotSpot kinase assay; format: biochemical; conditions: read-out: % Enzyme Activity (relative to DMSO controls)
T30 construct: purchased Reaction Biology Corporation

[31] = target: T31, TSSK3/STK22C (Homo sapiens, UniProt Q96PN8); assay: HotSpot kinase assay; format: biochemical; conditions: read-out: % Enzyme Activity (relative to DMSO controls)
T31 construct: purchased Reaction Biology Corporation

[32] = target: T32, TYRO3/SKY (Homo sapiens, UniProt Q06418); assay: HotSpot kinase assay; format: biochemical; conditions: read-out: % Enzyme Activity (relative to DMSO controls)
T32 construct: purchased Reaction Biology Corporation

[33] = target: T33, ZAP70 (Homo sapiens, UniProt P43403); assay: HotSpot kinase assay; format: biochemical; conditions: read-out: % Enzyme Activity (relative to DMSO controls)
T33 construct: purchased Reaction Biology Corporation

[34] = test system: HSV-2(G); assay: synchronized infection (entry) assay, HaCat cells; format: cell-based; conditions: 10 μM
Protocol: (§1) To quantify viral entry, cells were synchronously infected by allowing virus to bind to cells at 4°C for 4 h, washed, and then transferred to 37 °C. CIMSS or control DMSO was added at the time of temperature shift. At indicated times post-temperature shift, the cells were treated with a low pH buffer to inactivate virus that had not penetrated, washed, overlaid with medium containing methyl cellulose and viral plaques were counted at 48 h. Entry was also assessed by immunoblotting nuclear extracts for VP16. […] Nuclear extracts were prepared after 1 h and analyzed by western blot with antibodies targeting VP16, histone H1 and golgin-97[5]. The non-nuclear fraction was also probed for golgin-97 as a positive control. […] After 1 or 4 h of incubation, the cells were fixed. Plasma membranes were stained using Image -IT^TM LIVE Plasma Membrane kit and nuclei were stained with DAPI (Thermo Fisher Scientific, Cat 134406). The percentage of GFP + nuclei was determined by counting ~200 cells over 3–4 fields. Images were obtained with Leica SP8 microscope (objective 63 × 1.4); xz images were captured with optical slice 0.6 µm, 25–30 slices per image.

[35] = test system: HSV-2(G); assay: nuclear transport of VP-16 (immunoblot of nuclear extracts); format: cell-based; conditions: HaCat and primary vaginal cells, 1 h; CIMSS 10 μM, antibody 2 μg/ml
Protocol: as §1

[36] = in vitro; conditions: dog, MDCK-MDR1

T1 sequence (P31749 whole entry): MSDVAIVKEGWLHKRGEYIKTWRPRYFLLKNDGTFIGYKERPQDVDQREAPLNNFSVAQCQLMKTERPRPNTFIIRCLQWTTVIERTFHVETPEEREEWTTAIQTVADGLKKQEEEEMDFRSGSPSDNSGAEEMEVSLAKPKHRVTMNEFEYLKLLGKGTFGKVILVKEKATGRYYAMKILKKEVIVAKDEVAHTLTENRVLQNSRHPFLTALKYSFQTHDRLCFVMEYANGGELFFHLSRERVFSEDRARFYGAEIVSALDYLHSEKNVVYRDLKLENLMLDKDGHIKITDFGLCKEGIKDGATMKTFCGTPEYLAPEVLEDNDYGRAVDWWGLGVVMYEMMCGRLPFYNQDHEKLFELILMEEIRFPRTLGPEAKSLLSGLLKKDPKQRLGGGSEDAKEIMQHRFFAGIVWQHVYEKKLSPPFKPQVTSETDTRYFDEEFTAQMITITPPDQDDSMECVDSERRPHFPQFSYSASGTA
T17 sequence (Q9H1R3 whole entry): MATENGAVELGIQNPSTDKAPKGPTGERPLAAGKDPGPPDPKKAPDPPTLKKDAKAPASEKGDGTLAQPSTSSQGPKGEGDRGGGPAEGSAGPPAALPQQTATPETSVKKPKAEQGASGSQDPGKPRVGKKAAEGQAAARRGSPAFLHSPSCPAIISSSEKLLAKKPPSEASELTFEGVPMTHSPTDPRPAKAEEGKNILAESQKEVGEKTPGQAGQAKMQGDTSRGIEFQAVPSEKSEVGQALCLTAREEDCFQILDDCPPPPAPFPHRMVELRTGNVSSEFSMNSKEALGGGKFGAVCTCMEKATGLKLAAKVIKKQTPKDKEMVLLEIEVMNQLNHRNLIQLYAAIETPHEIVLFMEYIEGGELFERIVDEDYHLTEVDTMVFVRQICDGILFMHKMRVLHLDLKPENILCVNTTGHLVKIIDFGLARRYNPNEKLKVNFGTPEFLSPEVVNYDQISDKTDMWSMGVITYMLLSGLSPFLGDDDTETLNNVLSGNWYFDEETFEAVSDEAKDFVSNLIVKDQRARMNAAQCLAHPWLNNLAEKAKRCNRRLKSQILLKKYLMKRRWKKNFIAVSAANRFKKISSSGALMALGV
T33 sequence (P43403 whole entry): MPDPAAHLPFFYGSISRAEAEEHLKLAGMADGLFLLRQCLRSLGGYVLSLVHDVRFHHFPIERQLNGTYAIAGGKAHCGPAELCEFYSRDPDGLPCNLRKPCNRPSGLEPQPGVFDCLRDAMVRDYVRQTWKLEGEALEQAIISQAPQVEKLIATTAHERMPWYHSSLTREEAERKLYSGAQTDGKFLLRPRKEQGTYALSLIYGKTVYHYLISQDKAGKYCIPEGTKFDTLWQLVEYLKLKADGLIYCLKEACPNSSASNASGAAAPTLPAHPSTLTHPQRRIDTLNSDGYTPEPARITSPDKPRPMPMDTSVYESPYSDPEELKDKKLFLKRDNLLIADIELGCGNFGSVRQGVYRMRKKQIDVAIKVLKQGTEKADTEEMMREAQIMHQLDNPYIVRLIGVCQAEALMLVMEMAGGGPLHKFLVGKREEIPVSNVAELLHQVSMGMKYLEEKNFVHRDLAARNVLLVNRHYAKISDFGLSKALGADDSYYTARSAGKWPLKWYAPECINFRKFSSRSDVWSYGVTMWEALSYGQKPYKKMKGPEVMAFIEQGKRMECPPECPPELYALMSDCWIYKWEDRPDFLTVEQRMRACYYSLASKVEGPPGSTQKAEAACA
T14 sequence (P52333 whole entry): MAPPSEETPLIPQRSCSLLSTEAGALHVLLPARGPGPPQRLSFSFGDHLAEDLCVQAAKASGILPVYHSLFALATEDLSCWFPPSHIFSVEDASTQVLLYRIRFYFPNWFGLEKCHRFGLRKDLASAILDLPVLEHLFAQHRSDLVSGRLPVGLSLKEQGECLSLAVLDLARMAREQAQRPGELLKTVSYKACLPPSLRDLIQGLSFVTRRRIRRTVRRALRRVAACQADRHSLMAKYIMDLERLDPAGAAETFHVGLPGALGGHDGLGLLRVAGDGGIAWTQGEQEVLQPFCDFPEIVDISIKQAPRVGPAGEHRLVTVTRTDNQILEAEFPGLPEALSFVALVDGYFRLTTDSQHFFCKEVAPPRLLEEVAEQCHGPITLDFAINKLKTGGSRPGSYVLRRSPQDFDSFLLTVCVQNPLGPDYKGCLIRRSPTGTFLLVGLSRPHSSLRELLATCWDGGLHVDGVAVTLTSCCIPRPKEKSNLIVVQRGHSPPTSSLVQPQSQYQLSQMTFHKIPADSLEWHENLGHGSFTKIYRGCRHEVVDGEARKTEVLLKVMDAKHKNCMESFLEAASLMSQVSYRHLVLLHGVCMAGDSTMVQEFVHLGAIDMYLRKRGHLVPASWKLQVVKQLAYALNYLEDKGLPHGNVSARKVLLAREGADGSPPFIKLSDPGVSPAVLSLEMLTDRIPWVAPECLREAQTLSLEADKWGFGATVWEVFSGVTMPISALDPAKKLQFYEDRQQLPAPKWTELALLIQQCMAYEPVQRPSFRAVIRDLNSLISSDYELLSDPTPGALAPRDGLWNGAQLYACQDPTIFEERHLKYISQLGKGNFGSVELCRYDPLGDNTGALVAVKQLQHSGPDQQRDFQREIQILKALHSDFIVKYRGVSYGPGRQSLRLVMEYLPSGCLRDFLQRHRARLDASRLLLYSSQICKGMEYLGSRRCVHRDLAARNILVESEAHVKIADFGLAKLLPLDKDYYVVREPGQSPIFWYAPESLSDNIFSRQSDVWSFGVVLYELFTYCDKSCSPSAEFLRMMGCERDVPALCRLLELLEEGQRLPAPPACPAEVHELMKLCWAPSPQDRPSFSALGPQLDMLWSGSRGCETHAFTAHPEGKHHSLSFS
T4 sequence (P48729 whole entry): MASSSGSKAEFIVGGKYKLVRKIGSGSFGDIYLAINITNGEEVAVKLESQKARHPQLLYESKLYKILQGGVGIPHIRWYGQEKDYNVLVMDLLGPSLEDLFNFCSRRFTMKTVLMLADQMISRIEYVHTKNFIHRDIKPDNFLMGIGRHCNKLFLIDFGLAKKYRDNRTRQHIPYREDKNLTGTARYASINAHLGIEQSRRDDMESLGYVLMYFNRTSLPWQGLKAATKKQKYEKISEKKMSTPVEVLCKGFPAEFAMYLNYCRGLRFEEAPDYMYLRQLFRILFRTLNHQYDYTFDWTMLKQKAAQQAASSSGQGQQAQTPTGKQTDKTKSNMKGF
T2 sequence (Q96NX5 whole entry): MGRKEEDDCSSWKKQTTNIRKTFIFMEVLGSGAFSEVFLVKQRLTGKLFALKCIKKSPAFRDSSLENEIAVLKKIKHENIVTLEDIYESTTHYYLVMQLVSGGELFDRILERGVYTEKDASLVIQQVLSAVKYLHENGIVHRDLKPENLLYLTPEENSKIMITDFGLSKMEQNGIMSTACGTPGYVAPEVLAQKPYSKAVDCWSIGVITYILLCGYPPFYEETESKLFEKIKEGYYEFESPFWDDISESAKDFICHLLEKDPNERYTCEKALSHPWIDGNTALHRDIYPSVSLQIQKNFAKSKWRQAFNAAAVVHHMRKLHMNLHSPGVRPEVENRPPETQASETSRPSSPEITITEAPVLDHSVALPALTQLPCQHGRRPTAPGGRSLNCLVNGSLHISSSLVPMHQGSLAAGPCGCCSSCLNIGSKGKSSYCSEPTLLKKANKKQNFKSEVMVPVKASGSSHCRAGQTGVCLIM
T23 sequence (Q6P5Z2 whole entry): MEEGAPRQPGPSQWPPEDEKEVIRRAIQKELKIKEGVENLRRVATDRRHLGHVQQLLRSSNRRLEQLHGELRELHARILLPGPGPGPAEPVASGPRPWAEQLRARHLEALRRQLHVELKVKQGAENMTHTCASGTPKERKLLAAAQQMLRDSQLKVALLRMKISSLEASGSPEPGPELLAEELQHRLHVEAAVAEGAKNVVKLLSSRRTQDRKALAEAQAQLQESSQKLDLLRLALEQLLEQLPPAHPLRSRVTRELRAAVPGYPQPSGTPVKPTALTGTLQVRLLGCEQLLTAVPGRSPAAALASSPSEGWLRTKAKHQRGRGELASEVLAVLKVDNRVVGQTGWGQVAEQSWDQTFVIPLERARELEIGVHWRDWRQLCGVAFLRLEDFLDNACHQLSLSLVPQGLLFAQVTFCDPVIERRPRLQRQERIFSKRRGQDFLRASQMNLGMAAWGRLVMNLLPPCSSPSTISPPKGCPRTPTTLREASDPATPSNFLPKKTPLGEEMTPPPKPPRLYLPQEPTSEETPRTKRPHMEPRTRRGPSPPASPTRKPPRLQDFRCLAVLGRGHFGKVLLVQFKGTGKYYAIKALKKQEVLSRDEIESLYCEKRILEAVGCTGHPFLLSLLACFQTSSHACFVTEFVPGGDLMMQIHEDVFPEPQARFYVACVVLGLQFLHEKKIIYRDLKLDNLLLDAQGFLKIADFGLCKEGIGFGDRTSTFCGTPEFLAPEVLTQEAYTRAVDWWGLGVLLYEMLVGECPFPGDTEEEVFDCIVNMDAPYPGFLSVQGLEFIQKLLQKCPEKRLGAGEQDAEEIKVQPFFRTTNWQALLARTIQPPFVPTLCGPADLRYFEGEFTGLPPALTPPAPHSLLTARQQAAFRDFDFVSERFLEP
T27 sequence (O75716 whole entry): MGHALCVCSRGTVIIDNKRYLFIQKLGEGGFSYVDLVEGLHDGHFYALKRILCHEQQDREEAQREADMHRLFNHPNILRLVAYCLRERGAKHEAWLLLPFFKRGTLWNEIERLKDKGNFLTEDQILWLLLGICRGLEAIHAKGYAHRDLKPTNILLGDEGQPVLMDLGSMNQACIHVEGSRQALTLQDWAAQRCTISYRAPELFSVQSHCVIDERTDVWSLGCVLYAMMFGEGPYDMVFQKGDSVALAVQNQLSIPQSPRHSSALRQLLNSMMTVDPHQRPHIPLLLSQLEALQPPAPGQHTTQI

Structure (SMILES): CO[C@@H]1[C@H](N(C)C(=O)CCC(=O)NCc2cn(CCCS(=O)(=O)O)nn2)C[C@H]2O[C@]1(C)n1c3ccccc3c3c4c(c5c6ccccc6n2c5c31)C(=O)NC4 [CIMSS]
- IC50 ([1]; Supplementary Table 1, read-out: IC50 (Molar concentration)): 461 nM
- remaining activity at 10 µM ([1]; read-out: % Enzyme Activity (relative to DMSO controls), 10µM): 23.7%
- inhibition at 10 µM ([1]; read-out: inhibition of Akt1): > 75%
- remaining activity at 10 µM [2]: 8.97%
- remaining activity at 10 µM [3]: 68.8%
- remaining activity at 10 µM [4]: 98.3%
- remaining activity at 10 µM [5]: 13.6%
- remaining activity at 10 µM [6]: 2.33%
- remaining activity at 10 µM [7]: 31.5%
- remaining activity at 10 µM [8]: 37.9%
- remaining activity at 10 µM [9]: 70.1%
- remaining activity at 10 µM [10]: 2.77%
- remaining activity at 10 µM [11]: 4.31%
- remaining activity at 10 µM [12]: 7.23%
- remaining activity at 10 µM [13]: 1.47%
- remaining activity at 10 µM [14]: 0.97%
- remaining activity at 10 µM [15]: 69.9%
- remaining activity at 10 µM [16]: 106%
- remaining activity at 10 µM [17]: 27.3%
- remaining activity at 10 µM [18]: 71.3%
- remaining activity at 10 µM [19]: 67.7%
- remaining activity at 10 µM [20]: 4.33%
- remaining activity at 10 µM [21]: 3.52%
- remaining activity at 10 µM [22]: 13.9%
- remaining activity at 10 µM [23]: 20.2%
- remaining activity at 10 µM [24]: 2.1%
- remaining activity at 10 µM [25]: 78.8%
- remaining activity at 10 µM [26]: 22.6%
- remaining activity at 10 µM [27]: 10.2%
- remaining activity at 10 µM [28]: 8.29%
- remaining activity at 10 µM [29]: 7.2%
- remaining activity at 10 µM [30]: 0.34%
- remaining activity at 10 µM [31]: 62.2%
- remaining activity at 10 µM [32]: 23.6%
- remaining activity at 10 µM [33]: 13%
- plaques counted at 48 h ([34]; 1 h post-temperature shift): 11 and 17
- plaques counted at 48 h ([34]; 2 h post-temperature shift): 19 and 11
- viral plaque formation ([34]; each timepoint 0.5–2 h, p < 0.001): significant reduction
- nuclear transport of VP-16 [35]: inhibited
- Papp at 1 h, 5 μM [36]: 0.1 ×10⁻⁶ cm/s

— paper PMC9569420 (Communications Biology, 2022)
